Test results reported in patent US12161723B2, “Water-based cannabinoid and opioid compositions” (DAY THREE LABS MAN[…]., priority 2014, dated 2024).

Columns and labels:
BSA [1] = target: T1, BSA (Bos taurus, UniProt P02769); test: Cannabis smoke/vapor passed through BSA/water/ethanol solution, cannabinoid profile (Example 1d); assay type: binding, bovine; conditions: 33% ethanol, 48 hours incubation, washed
Procedure: (§1) To show which cannabinoid compounds are solubilized in processes using BSA versus organic solvents, cannabis from two different batches was smoked and or vaporized. Vapor was formed using a “volcano” vaporizer at a temperature of 210° C. The smoke/vapor was passed through either a BSA/water/ethanol solution described in example 1b, comprising 33% by volume ethanol or through a pure ethanol (99% ethanol) solution. Solutions were stirred using a magnetic stirrer and were incubated for 48 hours, during which time, most of the ethanol evaporated. One of the batches of cannabis was high in THC, and the other batch of cannabis was high in both THC and CBD.
The BSA/water/ethanol solution was washed after smoke or vapor was combined with it, and the amount of cannabinoids present was analyzed. The results of the comparison of relative concentration of cannabinoids (relative to total cannabinoid content) as expressed in percent (weight/weight), for a strain of cannabis high in THC are shown in the table below.

[2] = Cannabis smoke/vapor passed through pure ethanol, cannabinoid profile (Example 1d); assay type: physicochemical; conditions: for relative concentration of cannabinoids (relative to total cannabinoid content), Vapor passed through ethanol: vapor at 210° C.
Procedure: as §1

[3] = 3 g high THC strain; 200 ml ethanol concentrated to about 3 ml
ovalbumin (hen) = target: T2, ovalbumin (hen) (Gallus gallus, UniProt P01012); test: Cannabis vapor streamed through protein solution, cannabinoids adsorbed (Example 1f); assay type: binding; conditions: vapor of cannabis high in CBD; for percentage of each cannabinoid relative to total cannabinoids adsorbed to protein, Ovalbumin: 1 mg/ml protein, ethanol:water 1:2, 30° C., 24 hours
T2 sequence (P01012 1-386): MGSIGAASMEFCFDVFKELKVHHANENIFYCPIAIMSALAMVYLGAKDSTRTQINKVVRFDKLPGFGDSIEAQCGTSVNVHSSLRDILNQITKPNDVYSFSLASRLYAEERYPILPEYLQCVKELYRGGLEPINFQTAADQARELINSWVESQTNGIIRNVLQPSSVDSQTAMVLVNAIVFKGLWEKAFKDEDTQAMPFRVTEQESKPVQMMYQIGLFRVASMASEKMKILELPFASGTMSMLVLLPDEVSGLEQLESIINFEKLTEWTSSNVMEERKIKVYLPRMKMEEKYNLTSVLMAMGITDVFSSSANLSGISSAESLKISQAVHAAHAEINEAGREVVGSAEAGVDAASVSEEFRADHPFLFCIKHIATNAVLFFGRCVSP
Procedure: (§2) The protein solutions were formed using ethanol and water in a 1:2 ratio. The solutions were incubated at 30° C. for 24 hours.

[4] = target: T3, rice recombinant human serum albumin (HSA) (Homo sapiens, UniProt P02768); test: as above; assay type: binding; conditions: vapor of cannabis high in CBD; 1 mg/ml protein, ethanol:water 1:2, 30° C., 24 hours
T3 construct: host or cells: rice (recombinant expression host)
T3 sequence (P02768 25-609): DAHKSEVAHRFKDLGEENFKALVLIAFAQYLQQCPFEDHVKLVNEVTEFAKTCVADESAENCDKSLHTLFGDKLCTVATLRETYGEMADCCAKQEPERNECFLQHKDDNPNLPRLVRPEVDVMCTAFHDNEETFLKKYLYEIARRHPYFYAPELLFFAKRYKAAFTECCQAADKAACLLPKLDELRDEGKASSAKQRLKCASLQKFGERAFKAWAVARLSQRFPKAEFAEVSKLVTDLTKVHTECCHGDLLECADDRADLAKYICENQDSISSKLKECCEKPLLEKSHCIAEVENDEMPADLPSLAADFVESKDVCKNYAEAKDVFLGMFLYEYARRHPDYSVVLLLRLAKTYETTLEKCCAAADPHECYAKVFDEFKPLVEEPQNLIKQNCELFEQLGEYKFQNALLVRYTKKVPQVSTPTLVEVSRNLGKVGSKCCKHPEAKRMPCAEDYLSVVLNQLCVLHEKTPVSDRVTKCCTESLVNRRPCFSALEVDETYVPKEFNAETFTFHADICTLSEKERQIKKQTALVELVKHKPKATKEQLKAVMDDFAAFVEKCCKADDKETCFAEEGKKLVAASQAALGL
Procedure: as §2

bovine γ-globulin = test: as above; assay type: binding; conditions: vapor of cannabis high in CBD; 1 mg/ml protein, ethanol:water 1:2, 30° C., 24 hours
Procedure: as §2

albumin (BSA) = albumin (BSA) (Bos taurus, UniProt P02769); test: Ethanolic cannabinoid solution mixed with aqueous albumin, protein-bound cannabinoid quantified (Example 2b); assay type: binding, bovine; parameters: protein-bound cannabinoid quantified, Vapor: unit not given beside the values; conditions: 100 microliters ethanolic solution + 500 microliters 5 mg/ml BSA, 30° C., 12 hours, non-adsorbed cannabinoids separated
Sequence of albumin (BSA) (P02769 25-607): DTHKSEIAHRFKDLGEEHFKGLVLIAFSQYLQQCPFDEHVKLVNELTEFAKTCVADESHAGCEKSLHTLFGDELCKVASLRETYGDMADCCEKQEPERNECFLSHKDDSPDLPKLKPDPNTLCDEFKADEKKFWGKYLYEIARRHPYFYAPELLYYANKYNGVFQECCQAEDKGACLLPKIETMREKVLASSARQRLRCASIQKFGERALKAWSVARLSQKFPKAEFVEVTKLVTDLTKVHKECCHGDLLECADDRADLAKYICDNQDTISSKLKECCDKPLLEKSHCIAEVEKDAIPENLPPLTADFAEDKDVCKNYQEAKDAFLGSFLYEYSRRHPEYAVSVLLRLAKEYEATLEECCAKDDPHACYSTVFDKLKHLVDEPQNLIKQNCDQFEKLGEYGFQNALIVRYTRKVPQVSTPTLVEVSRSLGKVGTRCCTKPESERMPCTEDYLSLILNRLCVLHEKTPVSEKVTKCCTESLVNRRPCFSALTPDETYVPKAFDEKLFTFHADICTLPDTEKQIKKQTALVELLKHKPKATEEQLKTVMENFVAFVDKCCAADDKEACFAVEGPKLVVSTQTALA
Procedure: 100 microliters of ethanolic cannabinoid solution from cannabis vapor and cannabis smoke were each mixed with 500 microliters of aqueous albumin solution that had been prepared at a concentration of 5 mg albumin (BSA)/ml. The aqueous albumin solution combined with the ethanolic cannabinoid solution was incubated at 30° C. for 12 hours in open tubes. After 12 hours, the tubes were mixed and centrifuged, and non-adsorbed cannabinoids were separated from the solution. Concentrated protein-bound cannabinoid was dried and quantified as described below.

BSA [5] = target: T1, BSA; test: Cannabis extract combined with albumin solution, cannabinoids adsorbed to BSA (Example 2a); assay type: binding, bovine; conditions: albumin solution 10 mg/ml (BSA) with 20% ethanol, 2 hours at room temperature
Procedure: (§3) Cannabis extract was prepared as follows: In short, cannabis plant matter is dried, ground and homogenized to form ground cannabis. The ground cannabis is extracted with methanol/chloroform (volume/volume ratio of 9:1). Sonication and filtration is then performed. Identity of cannabinoids is determined by HPLC by evaporation, dissolution in an appropriate solvent.
(§4) Drying of the cannabis plant matter occurs under high vacuum at about 37±2° C. for about 24 hours and then ground to form a fine powder. 200 mg of ground powder is combined with 10 ml of methanol/chloroform, and sonicated in an ice bath for 30 minutes at maximum power. The supernatant is then filtered through a 0.2 micron filter.
(§5) A sample of the cannabis extract was analyzed for content of cannabinoids. The cannabis extract was then combined with albumin solution having 20% ethanol at 10 mg/ml (BSA) and incubated for 2 hours at room temperature.

[6] = Cannabinoid content of cannabis extract (Example 2a); assay type: physicochemical; conditions: methanol/chloroform 9:1 cannabis extract
Procedure: as §3, §4, §5

[7] = strain of cannabis high in CBD and THC

T1 sequence (P02769 25-607): as above

## CCCCCc1cc(O)c(C/C=C(\C)CCC=C(C)C)c(O)c1 [CBG, cannabigerol]
BSA [1]; [7]
  relative concentration of cannabinoids (relative to total cannabinoid content), Smoke passed through BSA/water/ethanol: 0.0 percent (weight/weight)
  relative concentration of cannabinoids (relative to total cannabinoid content), Vapor passed through BSA/water/ethanol: 0.0 percent (weight/weight)
BSA [1]; strain of cannabis high in THC
  relative concentration of cannabinoids (relative to total cannabinoid content), Smoke passed through BSA/water/ethanol: 21.0 percent (weight/weight)
[2]; [7]
  relative concentration of cannabinoids (relative to total cannabinoid content), Smoke passed through ethanol: 4.2 percent (weight/weight)
  relative concentration of cannabinoids (relative to total cannabinoid content), Vapor passed through ethanol: 1.5 percent (weight/weight)
[2]; strain of cannabis high in THC
  relative concentration of cannabinoids (relative to total cannabinoid content), Smoke passed through ethanol: 4.9 percent (weight/weight)
  relative concentration of cannabinoids (relative to total cannabinoid content), Vapor passed through ethanol: 1.2 percent (weight/weight)
[3]
  amount of cannabinoids dissolved in ethanol, Smoke: 292.063 micrograms/ml
  amount of cannabinoids dissolved in ethanol, Vapor: 183.6224 micrograms/ml
Ovalbumin (hen)
  percentage of each cannabinoid relative to total cannabinoids adsorbed to protein, Ovalbumin: 0 percentage
[4]
  percentage of each cannabinoid relative to total cannabinoids adsorbed to protein, Rice recombinant HSA: 0 percentage
Bovine γ-globulin
  percentage of each cannabinoid relative to total cannabinoids adsorbed to protein, Bovine γ-globulin: 0 percentage
Albumin (BSA)
  protein-bound cannabinoid quantified, Smoke: 5.9
  protein-bound cannabinoid quantified, Vapor: 11.685
BSA [5]
  percentage of each cannabinoid relative to total cannabinoids adsorbed to protein, Adsorbed to BSA after extract combined with BSA solution: 1 percentage
[6]
  percentage of each cannabinoid relative to total cannabinoids, Extract: 3 percentage

## CCCCCc1cc(O)c2c(c1)OC(C)(C)[C@@H]1CC=C(C)C[C@@H]21 [DELTA-8-THC]
BSA [1]; [7]
  relative concentration of cannabinoids (relative to total cannabinoid content), Smoke passed through BSA/water/ethanol: 0.0 percent (weight/weight)
  relative concentration of cannabinoids (relative to total cannabinoid content), Vapor passed through BSA/water/ethanol: 0.0 percent (weight/weight)
BSA [1]; strain of cannabis high in THC
  relative concentration of cannabinoids (relative to total cannabinoid content), Smoke passed through BSA/water/ethanol: 0.0 percent (weight/weight)
[2]; [7]
  relative concentration of cannabinoids (relative to total cannabinoid content), Smoke passed through ethanol: 0.0 percent (weight/weight)
  relative concentration of cannabinoids (relative to total cannabinoid content), Vapor passed through ethanol: 0.0 percent (weight/weight)
[2]; strain of cannabis high in THC
  relative concentration of cannabinoids (relative to total cannabinoid content), Smoke passed through ethanol: 0.0 percent (weight/weight)
  relative concentration of cannabinoids (relative to total cannabinoid content), Vapor passed through ethanol: 0.0 percent (weight/weight)
[3]
  amount of cannabinoids dissolved in ethanol, Smoke: 0 micrograms/ml
  amount of cannabinoids dissolved in ethanol, Vapor: 0 micrograms/ml
Albumin (BSA)
  protein-bound cannabinoid quantified, Smoke: 0
  protein-bound cannabinoid quantified, Vapor: 4.6

## C=C(C)[C@@H]1CCC(C)=C[C@H]1c1c(O)cc(CCCCC)cc1O [CBD, cannabidiol, reference compound]
BSA [1]; [7]
  relative concentration of cannabinoids (relative to total cannabinoid content), Smoke passed through BSA/water/ethanol: 22.3 percent (weight/weight)
  relative concentration of cannabinoids (relative to total cannabinoid content), Vapor passed through BSA/water/ethanol: 33.4 percent (weight/weight)
BSA [1]; strain of cannabis high in THC
  relative concentration of cannabinoids (relative to total cannabinoid content), Smoke passed through BSA/water/ethanol: 0.0 percent (weight/weight)
[2]; [7]
  relative concentration of cannabinoids (relative to total cannabinoid content), Smoke passed through ethanol: 44.7 percent (weight/weight)
  relative concentration of cannabinoids (relative to total cannabinoid content), Vapor passed through ethanol: 51.1 percent (weight/weight)
[2]; strain of cannabis high in THC
  relative concentration of cannabinoids (relative to total cannabinoid content), Smoke passed through ethanol: 1.9 percent (weight/weight)
  relative concentration of cannabinoids (relative to total cannabinoid content), Vapor passed through ethanol: 0.3 percent (weight/weight)
[3]
  amount of cannabinoids dissolved in ethanol, Smoke: 0 micrograms/ml
  amount of cannabinoids dissolved in ethanol, Vapor: 17.2726 micrograms/ml
Ovalbumin (hen)
  percentage of each cannabinoid relative to total cannabinoids adsorbed to protein, Ovalbumin: 55.9 percentage
[4]
  percentage of each cannabinoid relative to total cannabinoids adsorbed to protein, Rice recombinant HSA: 33 percentage
Bovine γ-globulin
  percentage of each cannabinoid relative to total cannabinoids adsorbed to protein, Bovine γ-globulin: 0 percentage
Albumin (BSA)
  protein-bound cannabinoid quantified, Smoke: 0
  protein-bound cannabinoid quantified, Vapor: 0
BSA [5]
  percentage of each cannabinoid relative to total cannabinoids adsorbed to protein, Adsorbed to BSA after extract combined with BSA solution: 0 percentage
[6]
  percentage of each cannabinoid relative to total cannabinoids, Extract: 0 percentage

## CCCCCc1cc(O)c(C/C=C(\C)CCC=C(C)C)c(O)c1C(=O)O [CBGA, cannabigerolic acid]
BSA [1]; [7]
  relative concentration of cannabinoids (relative to total cannabinoid content), Smoke passed through BSA/water/ethanol: 0.0 percent (weight/weight)
  relative concentration of cannabinoids (relative to total cannabinoid content), Vapor passed through BSA/water/ethanol: 0.0 percent (weight/weight)
BSA [1]; strain of cannabis high in THC
  relative concentration of cannabinoids (relative to total cannabinoid content), Smoke passed through BSA/water/ethanol: 0.0 percent (weight/weight)
[2]; [7]
  relative concentration of cannabinoids (relative to total cannabinoid content), Smoke passed through ethanol: 0.4 percent (weight/weight)
  relative concentration of cannabinoids (relative to total cannabinoid content), Vapor passed through ethanol: 0.0 percent (weight/weight)
[2]; strain of cannabis high in THC
  relative concentration of cannabinoids (relative to total cannabinoid content), Smoke passed through ethanol: 0.6 percent (weight/weight)
  relative concentration of cannabinoids (relative to total cannabinoid content), Vapor passed through ethanol: 0.1 percent (weight/weight)
[3]
  amount of cannabinoids dissolved in ethanol, Smoke: 23.088 micrograms/ml
  amount of cannabinoids dissolved in ethanol, Vapor: 28.7668 micrograms/ml
Ovalbumin (hen)
  percentage of each cannabinoid relative to total cannabinoids adsorbed to protein, Ovalbumin: 0 percentage
[4]
  percentage of each cannabinoid relative to total cannabinoids adsorbed to protein, Rice recombinant HSA: 0 percentage
Bovine γ-globulin
  percentage of each cannabinoid relative to total cannabinoids adsorbed to protein, Bovine γ-globulin: 0 percentage
Albumin (BSA)
  protein-bound cannabinoid quantified, Smoke: 0.58
  protein-bound cannabinoid quantified, Vapor: 1.43
BSA [5]
  percentage of each cannabinoid relative to total cannabinoids adsorbed to protein, Adsorbed to BSA after extract combined with BSA solution: 2 percentage
[6]
  percentage of each cannabinoid relative to total cannabinoids, Extract: 3 percentage

## CCCc1cc(O)c2c(c1)OC(C)(C)[C@@H]1CCC(C)=C[C@@H]21 [THCV, tetrahydrocannabivarin]
BSA [1]; [7]
  relative concentration of cannabinoids (relative to total cannabinoid content), Smoke passed through BSA/water/ethanol: 0.0 percent (weight/weight)
  relative concentration of cannabinoids (relative to total cannabinoid content), Vapor passed through BSA/water/ethanol: 0.0 percent (weight/weight)
BSA [1]; strain of cannabis high in THC
  relative concentration of cannabinoids (relative to total cannabinoid content), Smoke passed through BSA/water/ethanol: 0.0 percent (weight/weight)
[2]; [7]
  relative concentration of cannabinoids (relative to total cannabinoid content), Smoke passed through ethanol: 2.4 percent (weight/weight)
  relative concentration of cannabinoids (relative to total cannabinoid content), Vapor passed through ethanol: 0.8 percent (weight/weight)
[2]; strain of cannabis high in THC
  relative concentration of cannabinoids (relative to total cannabinoid content), Smoke passed through ethanol: 2.4 percent (weight/weight)
  relative concentration of cannabinoids (relative to total cannabinoid content), Vapor passed through ethanol: 0.7 percent (weight/weight)

B1: ovalbumin: ovalbumin (hen) (protein, UniProt P01012 2-386, looked up)
Ovalbumin: GSIGAASMEFCFDVFKELKVHHANENIFYCPIAIMSALAMVYLGAKDSTRTQINKVVRFDKLPGFGDSIEAQCGTSVNVHSSLRDILNQITKPNDVYSFSLASRLYAEERYPILPEYLQCVKELYRGGLEPINFQTAADQARELINSWVESQTNGIIRNVLQPSSVDSQTAMVLVNAIVFKGLWEKAFKDEDTQAMPFRVTEQESKPVQMMYQIGLFRVASMASEKMKILELPFASGTMSMLVLLPDEVSGLEQLESIINFEKLTEWTSSNVMEERKIKVYLPRMKMEEKYNLTSVLMAMGITDVFSSSANLSGISSAESLKISQAVHAAHAEINEAGREVVGSAEAGVDAASVSEEFRADHPFLFCIKHIATNAVLFFGRCVSP
Ovalbumin (hen); 1 mg/ml ovalbumin
  cannabinoid adsorbed per mg of protein: about 4 micrograms of cannabinoid per mg of protein
